Consider 58 compounds from the supplement of paper PMC6723410.

Structures are written as SMILES.

In one assay the test system is GUMC-403. The assay is described as follows: viability at highest tested concentration (max response) relative to DMSO (% of DMSO control); higher = less cytotoxic. Particulars: library / dose series: MIPE library, 11-point 1:3 dilution; top concentration 13.4 µM; 48 h. In short, it runs like this: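 Plates of 1536 wells were seeded with 700 patient-derived GUMC-403 papilloma cells per well, grown by conditional reprogramming, in 5 μL F + Y medium and kept overnight at 37 °C. Compounds followed at 23 nL by pin tool over an 11-point 1:3 series, for 48 h. After a CellTiter-Glo luminescence read on a ViewLux, signals were set against vehicle wells as 100% and empty wells as 0%. The reported number is viability at the highest tested concentration relative to vehicle control.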
`O.O.CCN1CCN(C(=O)N[C@H](C(=O)N[C@H]2[C@@H]3SC\C(=C(/N3C2=O)C(O)=O)CSC4=NN=N[N]4C)C5=CC=C(O)C=C5)C(=O)C1=O` registered a viability of 130.

The same assay, now with this note: library / dose series: MIPE library, 11-point 1:3 dilution; top concentration 46.1 µM; 48 h.
For `OCc1ccccc1O[C@@H]1O[C@H](CO)[C@@H](O)[C@H](O)[C@H]1O`, the viability was found to be 151. Compound `C/C=C/C(=O)N(CC)c1ccccc1C` returned a viability of 110. Still for that read-out and setting: then `C[C@@H]1CCO[C@H]2CN\3/C=C(/C(=O)NCC4=C(F)C=C(F)C=C4)C(=O)\C(=C3C(=O)N12)O`, with 110; and `CCOC(=O)[C@@H](N)CCC(=O)N[C@@H](CSCc1ccccc1)C(=O)N[C@@H](C(=O)OCC)c1ccccc1`, with 95.5. The same measure, in the same setting: next, `COCC(=O)NC/C=C/c1ccc2ncnc(Nc3ccc(Oc4ccc(C)nc4)c(C)c3)c2c1`: 98.1; `N#Cc1c(NC(=O)c2cccc3ccccc23)sc2c1CCCC2`: 109; `CC(C[N+](C)(C)C)OC(N)=O` (stereo not drawn): 101. `O=C(NCc1ccncc1)C12C[C@H]3C[C@@H](C1)CC(c1ccc(Cl)cc1)(C3)C2` registered a viability of 108.

`CN(C/C=C/C#CC(C)(C)C)Cc1cccc2ccccc12`: the viability came to 123.

As to `COc1cc(Cl)cn2c(-c3cccc(NC4CNC4)n3)cnc12`, the viability turned out to be 133.

Take `CN(C)c1cc(NC(=O)CNC(C)(C)C)c(O)c2c1C[C@H]1C[C@H]3[C@H](N(C)C)C(O)=C(C(N)=O)C(=O)[C@@]3(O)C(O)=C1C2=O`: the viability worked out at 110.

In turn, `NCCc1ccc(O)c(O)c1` had a viability of 108.

`CN(C)CCc1c[nH]c2ccc(C[C@H]3COC(=O)N3)cc12` registered a viability of 106. With `O=C(C[C@@H]1C/C=C\CCC(=O)O[C@H](c2ccccc2)CNC1=O)NCc1ccc(Cl)cc1`, the viability was found to be 97.5. `OC[C@H]1O[C@@H]2[C@@H](OC\3=N\C(=N)\C=C/[N@@]23)[C@@H]1O`: the viability was found to be 124. On the same count and under the same terms, then `CC(C(=O)O)c1ccc2c(c1)CC(=O)c1ccccc1S2` (stereo not drawn), with 103. In turn, `CC(=O)OCC(=O)[C@@]1(O)CC[C@H]2[C@@H]3CCC/4=C/C(=O)/C=C\[C@]4(C)[C@H]3[C@@H](O)C[C@]12C` came in with a viability of 123. The compound `Cc1cc(Nc2ncnc3ccc(-c4ccc(CNCC[S+](C)(=O)[O-])o4)cc23)ccc1Oc1ccn2ncnc2c1` had a viability of 99.8. On the same count and under the same terms, next, `CC(C)(O)C(=O)Nc1ccc([N+](=O)[O-])c(C(F)(F)F)c1`: 112. As to `COCCOc1nc(-c2ccc(Cl)c(Cl)c2)n(-c2ccc(NC(=O)CCl)cc2)n1`, the viability worked out at 85.8. Regarding `COc1ccccc1OCCNCC(O)COc1cccc2[nH]c3ccccc3c12` (stereo not drawn), the viability is 102. `C#C[C@]1(O)CC[C@H]2[C@@H]3CCc4cc(O)ccc4[C@H]3CC[C@@]21C` showed a viability of 74.3.

On to `OCc1ccc(-c2ccc(-c3ccc(CO)s3)o2)s1`, for which the viability is 117. In turn, `CC(C)(OCc1nn(Cc2ccccc2)c2ccccc12)C(=O)O` gave a viability of 113. Still for that read-out and setting: next, `O=C(O)c1cccnc1Nc1cccc(C(F)(F)F)c1`: 129; `CCC1=C(C)CN(C(=O)NCCc2ccc(S(=O)(=O)NC(=O)N[C@H]3CC[C@H](C)CC3)cc2)C1=O`: 113; `CCc1cncnc1N1CCN(Cc2nc3cc(C(F)(F)F)ccc3[nH]2)CC1`: 84.5. On the same count and under the same terms, then `CC1(C)CC\C2=C(/O1)C3=C(C=CC=C3)C(=O)C2=O`, with 123; and `CC(C)(O)CC[C@@H](O)[C@](C)(O)[C@H]1CC[C@@]2(O)C/3=C/C(=O)[C@@H]4C[C@@H](O)[C@@H](O)C[C@]4(C)[C@H]3CC[C@]12C`, with 111; and `O=C1Cc2cc(CCN3CCN(c4nsc5ccccc45)CC3)c(Cl)cc2N1`, with 100.

Compound `Cn1cc(-c2ccncc2)c(-c2ccc(OCc3ccc4ccccc4n3)cc2)n1` had a viability of 98.3.

`Cc1cc(/C=c2/sc3nc4ccccc4n3c2=O)c(C)n1-c1ccccc1`: the viability was 106.

`C[C@](Cc1c[nH]c2ccccc12)(NC(=O)OC1C2CC3CC(C2)CC1C3)C(=O)NC[C@H](NC(=O)CCC(=O)O)c1ccccc1` (stereo partly drawn) gave a viability of 103. For `COc1cc(OC2CCN(C)CC2)ccc1Nc1ncc2c(n1)n(C1CCCC1)c(=O)n2C`, the viability is 60.4. For `O=S(=O)([O-])CCS.[Na+]`, the viability came out at 147. The compound `O=[S+]([O-])(NCCNC/C=C/c1ccc(Br)cc1)c1cccc2cnccc12` displayed a viability of 72.3.

Turning to `OCCn1cc(-c2ccc3c(c2)CC/C3=N\O)c(-c2ccncc2)n1`, the viability was found to be 94.5.

`ClC1=CC\2=C(OC3=C(C=CC=C3)\N=C2N4CCNCC4)C=C1` had a viability of 110.

In turn, `CC[C@@H]1C(=O)N(C)c2cnc(Nc3ccc(C(=O)NC4CCN(C)CC4)cc3OC)nc2N1C1CCCC1` had a viability of 41.8. `Cc1ccnc(N[S+](=O)([O-])c2ccc(NC(=O)Nc3ccc([S+](=O)([O-])Nc4nccc(C)n4)cc3)cc2)n1` had a viability of 121.

Compound `Oc1ccc(C2CNCCc3c2cc(O)c(O)c3Cl)cc1` (stereo not drawn) gave a viability of 120.

As to `O=C1Nc2ccccc2/C1=C1\Nc2ccccc2C1=O`, the viability is 104. The same measure, in the same setting: then `O=C1NC(O)CCN1[C@@H]1O[C@H](CO)[C@@H](O)[C@H]1O` (stereo partly drawn), with 124. The same measure, in the same setting: next, `C[C@]12CC[C@H]3[C@@H](CCC/4=C/C(=O)CC[C@]34C)[C@@H]1CC[C@@H]2OC(=O)CCC5CCCC5`: 102. `C#Cc1cccc(Nc2ncnc3cc(OC)c(OCCCCCCC(=O)NO)cc23)c1` registered a viability of 33.9. On the same count and under the same terms, next, `CC(C)(CO)[C@@H](O)C(=O)NCCC(=O)O`: 82.6.

Turning to `N/C1=N/C(=O)C/2=C(NC[C@@H](CNC3=CC=C(C=C3)C(=O)N[C@@H](CCC([O-])=O)C([O-])=O)N2C=O)\N1`, the viability turned out to be 132. On the same count and under the same terms, then `NCCc1c[nH]cn1`, with 135.

Compound `C[C@]1(O)CC(C1)C2=NC(=C3[N]2C=CN=C3N)C4=CC5=C(C=C4)C=CC(=N5)C6=CC=CC=C6` (stereo not drawn) showed a viability of 86.4. Same read-out and setting: next, `CC(C)N(CCCNC(=O)Nc1ccc(C(C)(C)C)cc1)C[C@H]1O[C@@H](n2cc(Br)c3c(N)ncnc32)[C@H](O)[C@@H]1O`: 89.1; `C=C[C@H]1CN2CCC1C[C@H]2[C@H](O)c1ccnc2ccc(OC)cc12` (stereo partly drawn): 98.4. Still for that read-out and setting: then `CCc1cc2c(cc1N1CCC(N3CCOCC3)CC1)C(C)(C)c1[nH]c3cc(C#N)ccc3c1C2=O`, with 97.8; and `C=CC[N+]1([C@H]2C[C@H]3[C@@H]4CC[C@H]5C[C@H](O)[C@@H](N6CCOCC6)C[C@]5(C)[C@H]4CC[C@]3(C)[C@H]2OC(C)=O)CCCC1`, with 108. On the same count and under the same terms, next, `Cc1ncc([N+](=O)[O-])n1CC(C)O` (stereo not drawn): 110.

Take `CCOC(CN1C(=O)[C@](CC(=O)Nc2ccc(C)cc2)(NC(=O)Nc2ccc(C)cc2)c2ccccc21)OCC`: the viability turned out to be 129. `NCCS(=O)(=O)O`: the viability was determined as 123. Take `CCc1c(C(=O)C(N)=O)c2c(OCC(=O)O)cccc2n1Cc1ccccc1`: the viability turned out to be 103.
